Here are results for two molecules from patent US9156790B2, “Anticancer P21-activated kinase inhibitors” (Ohio State Innovation Foundation, priority 2013, dated 2015).

Assay [1] concerns the target CHK1 (Homo sapiens, UniProt O14757). In words: Kinase profiling panel: CHK1. The settings on record: 5 μM compound; average of triplicate. The format is biochemical. The method, then: (§1) To further probe the selectivity of the compounds 4 and 15, they were subjected for kinase profiling service for screening against a panel of other kinases selected based on the kinase tree at 5 μM concentration, at or above the IC50 for the two compounds versus PAK in both in vitro and cell-based assays. […] PAK1 was not available for testing using this system thus it was not possible to compare directly in this assay system.

Assay [2] addresses CDK1/cyclinB (Homo sapiens, UniProt P06493). The experiment in a line: Kinase profiling panel: CDK1/cyclinB. Type of assay: biochemical. As to conditions: 5 μM compound; average of triplicate. The method, then: as §1
The test system of assay [3] is BCPAP cells transfected with constitutively activated PAK1 cDNA. The experiment in a line: Migration rescue experiment with constitutively activated PAK1. Type of assay: cell-based, Human. The settings on record: 1 μM compound, 24 hours, P<0.05. The procedure: Myc-tagged constitutively activated (CA) PAK1 cDNAs was the generous gift of Dr. Jonathan Chernoff (Fox Chase Cancer Center, Philadelphia, Pa.). Sells et al., J Cell Biol 145:837-849 (1999). pRC/CMV and pcDNA3.1(+) vector were purchased from Life Technologies. BCPAP cells were grown in RPMI containing 10% FBS until 40-50% confluent. They were transfected with CAPAK1 cDNA or a vector control, washed with PBS, trypsinized with 0.05% Trypsin-EDTA 1× (Gibco) for 5-10 min, collected with 10% FBS RPMI, and centrifuged at 300 g for 5 min. Cells were resuspended with 0% FBS RPMI and counted using Countess™ (Invitrogen). Then a volume of 1×10^5 cells suspended in 300 μl of 0% FBS RPMI was placed into Boyden chamber inserts (8 μm pore). The inserts were placed into wells of a 24 well plate filled with 400 μl of 0% FBS RPMI. The plate was incubated at 37° C. 5% CO2 for 1 hour. Then 30 μl (1 μM) of either compound 4 or 15 was added to the inserts and then incubated again for 1 hour. The inserts were transferred into different wells filled with 400 μl of 10% FBS RPMI. After incubation for 24 hours, the cells on either side of the insert membrane were fixed and quantified as above. Experiments were performed in triplicate on three occasions.
Because the compounds are multikinase inhibitors, we next sought to determine if PAK1 inhibition was responsible for some of the biological effects of the compounds. […]

In assay [4] the target is PKCα (Homo sapiens, UniProt P17252). In words: Kinase profiling panel: PKCα. Type of assay: biochemical. The settings on record: 5 μM compound; average of triplicate. The method, then:
as §1

Assay [5] addresses T1, Recombinant active PAK 1 (Homo sapiens, UniProt Q13153).
T1 construct: purchased Calbiochem
The experiment in a line: In vitro PAK1 kinase assay (MBP substrate, 32P-ATP). Type of assay: biochemical. As to conditions: for Inhibition of PAK1 kinase activity in initial screen: 7.5 μM inhibitor, 2.5 μM ATP, myelin basic protein substrate (FIG. 2A); for ATP competition for PAK1: ATP 5-40 μM, Lineweaver-Burk analysis (FIG. 2C); for Relative PAK1 inhibitory potency (comparison in words) / pIC50: in vitro kinase assay; for Relative PAK1 inhibitory potency (comparison in words): comparison between compounds / with OSU-03012; for pIC50: read-out: IC50 versus PAK, in vitro (bound implied by chosen test concentration). The method, then: Recombinant active PAK 1 (Calbiochem) was incubated with selected derivatives or 0.1% DMSO in the presence or absence of MBP (Sigma) in a 1× kinase buffer (Cell Signaling). The addition of [γ-32P]-ATP (2.5 μCi/reaction) (Perkin Elmer) started the reaction, which was incubated at 30° C. for 30 minutes. The reaction was terminated by the addition of EDTA. Results were obtained after visualization of ^32P-labeled MBP after separation on 12% polyacrylamide gels and autoradiography. For the Lineweaver-Burk plot analysis, the ratio of radioactive ATP to nonradioactive ATP was not altered. The PAK1 kinase activities are the means of three independent experiments quantified using P81 phosphocellulose paper by a scintillation counter after three washes with 0.75% phosphoric acid.
Screening of OSU-03012 Derivatives to Identify PAK1 Inhibitors. The 17 derivatives along with OSU-03012, each at 7.5 μM, were screened for their ability to inhibit PAK1 activity by in vitro PAK1 kinase assay. The dose was chosen (above the IC50 of OSU-03012) to allow OSU-03012 to serve as a robust positive control. The PAK1 kinase assay was performed using recombinant active PAK1 with myelin basic protein as substrate in the presence of 2.5 μM ATP and 7.5 μM of respective inhibitors.
To further investigate these six compounds, dose-response studies on PAK1 activity were performed by using PAK1 kinase assay. […] We next questioned whether compounds 4 or 15 inhibited PAK1 in an ATP competitive manner as their parent compound OSU-03012.

In assay [6] the target is EGFR (Homo sapiens, UniProt P00533). In words: Kinase profiling panel: EGFR. Type of assay: biochemical. As to conditions: 5 μM compound; average of triplicate. The method, then:
as §1

Assay [7] addresses PKA (Homo sapiens, UniProt P17612). The experiment in a line: Kinase profiling panel: PKA. The format is biochemical. The settings on record: 5 μM compound; average of triplicate. The method, then: as §1

pIC50: −log10 of the molar value. Entries after “also recorded” stand apart in the source; their conditions may differ.

T1 sequence (Q13153 whole entry): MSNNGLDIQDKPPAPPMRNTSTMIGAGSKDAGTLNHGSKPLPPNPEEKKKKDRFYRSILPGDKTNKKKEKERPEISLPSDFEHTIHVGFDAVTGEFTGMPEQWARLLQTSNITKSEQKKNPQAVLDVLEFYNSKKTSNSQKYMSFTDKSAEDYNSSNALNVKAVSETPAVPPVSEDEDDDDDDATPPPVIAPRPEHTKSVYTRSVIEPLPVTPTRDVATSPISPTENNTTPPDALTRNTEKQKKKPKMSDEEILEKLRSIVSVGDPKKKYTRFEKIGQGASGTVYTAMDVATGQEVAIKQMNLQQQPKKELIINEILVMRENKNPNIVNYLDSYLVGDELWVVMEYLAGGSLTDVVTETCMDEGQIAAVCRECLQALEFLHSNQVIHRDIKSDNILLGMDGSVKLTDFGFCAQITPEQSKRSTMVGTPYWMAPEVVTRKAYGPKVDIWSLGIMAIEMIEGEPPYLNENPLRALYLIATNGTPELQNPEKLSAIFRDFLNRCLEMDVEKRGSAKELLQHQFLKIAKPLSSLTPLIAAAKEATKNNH
Chain of CHK1 (O14757 whole entry, species assumed): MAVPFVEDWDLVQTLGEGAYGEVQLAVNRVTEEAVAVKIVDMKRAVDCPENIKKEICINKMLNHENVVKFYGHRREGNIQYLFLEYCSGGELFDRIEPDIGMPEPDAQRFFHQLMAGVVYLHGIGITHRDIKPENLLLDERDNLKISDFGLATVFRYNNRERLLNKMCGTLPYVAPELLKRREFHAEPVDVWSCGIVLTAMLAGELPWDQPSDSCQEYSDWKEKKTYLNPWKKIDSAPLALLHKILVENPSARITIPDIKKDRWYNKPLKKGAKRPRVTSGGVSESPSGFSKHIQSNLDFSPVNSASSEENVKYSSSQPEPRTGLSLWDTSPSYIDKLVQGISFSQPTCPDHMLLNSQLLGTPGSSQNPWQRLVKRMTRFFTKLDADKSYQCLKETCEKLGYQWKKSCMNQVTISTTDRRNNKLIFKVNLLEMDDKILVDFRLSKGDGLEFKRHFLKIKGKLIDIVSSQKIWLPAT
Chain of CDK1/cyclinB (P06493 whole entry, species assumed): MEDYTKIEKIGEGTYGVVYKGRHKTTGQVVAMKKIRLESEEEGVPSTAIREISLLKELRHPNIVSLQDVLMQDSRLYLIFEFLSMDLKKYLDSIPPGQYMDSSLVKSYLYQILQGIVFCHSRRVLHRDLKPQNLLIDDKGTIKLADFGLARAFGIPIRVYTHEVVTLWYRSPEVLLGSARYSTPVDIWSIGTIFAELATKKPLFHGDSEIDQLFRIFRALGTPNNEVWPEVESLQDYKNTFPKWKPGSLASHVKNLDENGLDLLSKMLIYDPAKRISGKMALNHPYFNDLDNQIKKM
Chain of CDK1/cyclinB (P14635 whole entry partner, species assumed): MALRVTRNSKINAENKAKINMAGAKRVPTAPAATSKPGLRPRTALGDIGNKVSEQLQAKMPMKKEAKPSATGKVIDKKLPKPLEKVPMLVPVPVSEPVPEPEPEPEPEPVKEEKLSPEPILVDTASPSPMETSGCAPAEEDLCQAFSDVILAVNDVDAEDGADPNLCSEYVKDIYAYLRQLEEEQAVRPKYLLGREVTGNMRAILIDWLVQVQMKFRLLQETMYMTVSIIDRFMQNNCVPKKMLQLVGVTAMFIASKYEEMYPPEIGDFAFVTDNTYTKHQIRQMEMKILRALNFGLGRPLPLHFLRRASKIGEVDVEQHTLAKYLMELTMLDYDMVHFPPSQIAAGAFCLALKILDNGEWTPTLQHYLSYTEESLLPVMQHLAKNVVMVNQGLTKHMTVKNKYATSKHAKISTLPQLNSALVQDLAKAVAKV
Chain of EGFR (P00533 25-1210, species assumed): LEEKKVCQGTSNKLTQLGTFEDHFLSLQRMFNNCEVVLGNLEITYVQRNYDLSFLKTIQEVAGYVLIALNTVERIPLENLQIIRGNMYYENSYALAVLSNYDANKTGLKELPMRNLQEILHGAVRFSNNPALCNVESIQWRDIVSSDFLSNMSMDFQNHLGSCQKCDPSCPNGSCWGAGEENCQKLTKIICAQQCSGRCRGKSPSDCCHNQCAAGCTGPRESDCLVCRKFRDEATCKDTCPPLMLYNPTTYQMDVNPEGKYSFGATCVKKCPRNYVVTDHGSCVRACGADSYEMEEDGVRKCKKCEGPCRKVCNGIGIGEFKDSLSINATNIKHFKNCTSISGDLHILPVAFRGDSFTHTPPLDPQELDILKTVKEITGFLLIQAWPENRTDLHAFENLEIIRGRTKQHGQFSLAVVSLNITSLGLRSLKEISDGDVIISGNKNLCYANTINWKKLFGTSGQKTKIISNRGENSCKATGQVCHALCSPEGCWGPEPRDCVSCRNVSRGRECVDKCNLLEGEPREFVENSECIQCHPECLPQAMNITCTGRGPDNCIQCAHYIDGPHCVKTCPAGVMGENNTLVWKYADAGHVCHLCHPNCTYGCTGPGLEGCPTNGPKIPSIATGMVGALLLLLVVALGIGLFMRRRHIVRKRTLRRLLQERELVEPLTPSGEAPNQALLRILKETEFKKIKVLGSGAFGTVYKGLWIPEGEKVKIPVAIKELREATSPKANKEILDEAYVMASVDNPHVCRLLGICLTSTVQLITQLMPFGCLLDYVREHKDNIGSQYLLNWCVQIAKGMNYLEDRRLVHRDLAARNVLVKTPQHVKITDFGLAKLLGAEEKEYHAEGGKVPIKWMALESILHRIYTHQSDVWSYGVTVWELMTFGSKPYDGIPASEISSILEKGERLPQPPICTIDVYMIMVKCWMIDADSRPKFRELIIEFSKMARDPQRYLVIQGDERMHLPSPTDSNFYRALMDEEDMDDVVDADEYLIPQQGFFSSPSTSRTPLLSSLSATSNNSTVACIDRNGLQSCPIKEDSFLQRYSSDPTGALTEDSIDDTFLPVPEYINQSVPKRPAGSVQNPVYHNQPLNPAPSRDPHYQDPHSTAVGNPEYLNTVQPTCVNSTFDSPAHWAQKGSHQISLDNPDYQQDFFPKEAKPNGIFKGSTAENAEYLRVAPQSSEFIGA

On to `NCCC(=O)Nc1ccc(-n2nc(C(F)(F)F)cc2-c2ccc3ccc4ccccc4c3c2)cc1` [Compound 4, 3-amino-N-(4-(5-(phenanthren-3-yl)-3-(trifluoromethyl)-1H-pyrazol-1-yl)phenyl)-propanamide], for which the “% activity vs. DMSO, CHK1” value in assay [1] was found to be 82%. Besides, in assay [2], the “% activity vs. DMSO, CDK1/cyclinB” value is recorded as 83%. In addition, in assay [3], the “Rescue of anti-migratory effect by constitutively activated PAK1” value is “rescued”. In addition, in assay [4], the “% activity vs. DMSO, PKCα” value is 92%. Also, in assay [5], the “Inhibition of PAK1 kinase activity in initial screen” value is given as “inhibited PAK1 kinase activity”, the “ATP competition for PAK1” value is recorded as “competed with ATP binding to PAK1”, the “Relative PAK1 inhibitory potency (comparison in words)” value is “comparable PAK1 inhibitory activity to OSU-03012; also recorded: more potent than the other compounds” and the pIC50 was at least 5.30. In assay [6], the “% activity vs. DMSO, EGFR” value is 99%. Further, the “% activity vs. DMSO, PKA” value in assay [7] was determined as 110%.
For `CC(C)NC(=O)c1cc(-c2ccc3ccc4ccccc4c3c2)n(-c2ccc(NC(=O)CN)cc2)n1` [Compound 15, 1-(4-(2-Aminoacetamido)phenyl)-N-isopropyl-5-(phenanthren-3-yl)-1H-pyrazole-3-carboxamide], the “% activity vs. DMSO, CHK1” value in assay [1] was 89%. The “% activity vs. DMSO, CDK1/cyclinB” value in assay [2] turned out to be 95%. In assay [3], the “Rescue of anti-migratory effect by constitutively activated PAK1” value is “rescued”. In addition, the “% activity vs. DMSO, PKCα” value in assay [4] is given as 92%. In assay [5], the “Inhibition of PAK1 kinase activity in initial screen” value was “inhibited PAK1 kinase activity”, the “ATP competition for PAK1” value is “competed with ATP binding to PAK1”, the “Relative PAK1 inhibitory potency (comparison in words)” value is “relative enhancement in activity; also recorded: comparable PAK1 inhibitory activity to OSU-03012; also recorded: more potent than the other compounds” and the pIC50 was at least 5.30. Further, the “% activity vs. DMSO, EGFR” value in assay [6] is on record as 100%. Besides, the “% activity vs. DMSO, PKA” value in assay [7] is listed as 119%.
